Drawing on PubChem BioAssay AID330 (DTP/NCI, 2004), this text covers T/C for 21 molecules.

This assay has as its system P388 leukemia ip, CD2F1 mice, survival T/C. The assay is described as follows: NCI In Vivo Anticancer Drug Screen. Data for tumor model P388 Leukemia (intraperitoneal) in CD2F1 (CDF1) mice. Particulars: endpoint: median survival time, higher = longer survival. In a few lines:
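Mice carrying the transplanted tumor received test compound or vehicle. Survival was recorded in each group, and the value is the treated-group measurement divided by that of the vehicle-treated control group.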

The mark [1] stands for this setting: dose: 50.0 mg/kg/injection, schedule: Q01DX009 (ip), vehicle: saline with Tween-80.
[2] abbreviates: dose: 100.0 mg/kg/injection, schedule: Q01DX009 (ip), vehicle: saline with Tween-80.
The mark [3] stands for this setting: dose: 200.0 mg/kg/injection, schedule: Q01DX009 (ip), vehicle: saline with Tween-80.
Where [4] appears, read: dose: 60.0 mg/kg/injection, schedule: Q01DX005 (ip), vehicle: saline with Tween-80.
[5] abbreviates: dose: 120.0 mg/kg/injection, schedule: Q01DX005 (ip), vehicle: saline with Tween-80.
The mark [6] stands for this setting: dose: 240.0 mg/kg/injection, schedule: Q01DX005 (ip), vehicle: saline with Tween-80.
[7] abbreviates: dose: 50.0 mg/kg/injection, schedule: Q01DX005 (ip), vehicle: saline with Tween-80.
The mark [8] stands for this setting: dose: 100.0 mg/kg/injection, schedule: Q01DX005 (ip), vehicle: saline with Tween-80.
[9] abbreviates: dose: 200.0 mg/kg/injection, schedule: Q01DX005 (ip), vehicle: saline with Tween-80.

Several values for one entry are separate records, joined by “and”; a condition that tells them apart may be missing. Identical values can stand only once. Inconclusive results and toxic doses are left out.

Regarding `O=[N+]([O-])c1ccc(Sc2cccc[n+]2[O-])c2nonc12`, the T/C by setting is: (dose: 1.87 mg/kg/injection, schedule: Q01DX009 (ip), vehicle: Klucel (hydroxypropylcellulose) (HPC)) 107 % of control; (dose: 3.75 mg/kg/injection, schedule: Q01DX009 (ip), vehicle: Klucel (hydroxypropylcellulose) (HPC)) 99 % of control; (dose: 7.5 mg/kg/injection, schedule: Q01DX009 (ip), vehicle: Klucel (hydroxypropylcellulose) (HPC)) 101 % of control.

With `c1ccc2c(c1)Nc1ncccc1S2`, the T/C was 99 % of control and 94 % of control under setting [1]; 92 % of control and 95 % of control under setting [2]; 107 % of control and 92 % of control under setting [3]; 108 % of control (dose: 400.0 mg/kg/injection, schedule: Q01DX009 (ip), vehicle: saline with Tween-80).

`O=C(Nc1ccc(S(=O)(=O)Nc2nccs2)cc1)c1cccnc1Nc1cccc(Cl)c1`: the T/C by setting is: under setting [4], 111 % of control; under setting [5], 113 % of control; under setting [6], 106 % of control.

As for `CSC(=S)N/N=C(\c1ccccc1)c1ccccn1`, the T/C (dose: 6.25 mg/kg/injection, schedule: Q01DX009 (ip), vehicle: saline with Tween-80) was 96 % of control; the T/C (dose: 12.5 mg/kg/injection, schedule: Q01DX009 (ip), vehicle: saline with Tween-80) is 89 % of control and 97 % of control; the T/C under setting [1] is 92 % of control.

As for `CCn1c(=O)c2[nH]c(Cl)nc2n(C)c1=O`, the T/C (dose: 16.0 mg/kg/injection, schedule: Q01DX009 (ip), vehicle: Klucel (hydroxypropylcellulose) (HPC)) is 111 % of control; the T/C (dose: 25.0 mg/kg/injection, schedule: Q01DX009 (ip), vehicle: Klucel (hydroxypropylcellulose) (HPC)) is 102 % of control; the T/C (dose: 32.0 mg/kg/injection, schedule: Q01DX009 (ip), vehicle: Klucel (hydroxypropylcellulose) (HPC)) is 107 % of control; the T/C (dose: 50.0 mg/kg/injection, schedule: Q01DX009 (ip), vehicle: Klucel (hydroxypropylcellulose) (HPC)) is 94 % of control; the T/C (dose: 64.0 mg/kg/injection, schedule: Q01DX009 (ip), vehicle: Klucel (hydroxypropylcellulose) (HPC)) is 102 % of control.

On to `O[B]c1nc2ccccc2c2ccccc12`, for which the T/C by setting is: (dose: 60.0 mg/kg/injection, schedule: Q01DX005 (ip), vehicle: Klucel (hydroxypropylcellulose) (HPC)) 105 % of control; (dose: 120.0 mg/kg/injection, schedule: Q01DX005 (ip), vehicle: Klucel (hydroxypropylcellulose) (HPC)) 102 % of control; (dose: 240.0 mg/kg/injection, schedule: Q01DX005 (ip), vehicle: Klucel (hydroxypropylcellulose) (HPC)) 119 % of control.

Regarding `N=C(N)c1ccc(NC(=O)c2ccc(C(=O)Nc3ccc(C(=N)N)cc3)c(N)c2)cc1`, the T/C was 110 % of control under setting [7], 107 % of control under setting [8] and 87 % of control under setting [9].

On to `COC(=O)Nc1ccc(C(=O)c2ccccc2)cc1`, for which the T/C was 98 % of control (dose: 50.0 mg/kg/injection, schedule: Q01DX009 (ip), vehicle: saline); 99 % of control (dose: 100.0 mg/kg/injection, schedule: Q01DX009 (ip), vehicle: saline); 93 % of control (dose: 200.0 mg/kg/injection, schedule: Q01DX009 (ip), vehicle: saline).

Turning to `O=C1CN(C2CC2N2CC(=O)OC(=O)C2)CC(=O)O1` (configuration not stated), the T/C was 97 % of control (dose: 100.0 mg/kg/injection, schedule: Q04DX003 (ip), vehicle: saline with Tween-80) and 89 % of control (dose: 400.0 mg/kg/injection, schedule: Q04DX003 (ip), vehicle: saline with Tween-80).

Consider `CC12CCC3C(CCC4(O)C=CCCC34C=O)C1(O)CC(O)C2c1ccc(=O)oc1` (configuration not stated), for which the T/C reads like this: (dose: 25.0 mg/kg/injection, schedule: Q01DX009 (ip), vehicle: saline with Tween-80) 97 % of control; under setting [1], 91 % of control; under setting [2], 91 % of control; under setting [3], 91 % of control.

Turning to `CC(=O)OC1CC(OC(C)=O)C2(C)CC3=C(O)C(=O)OC3CC(C)C12` (configuration not stated), the T/C is 97 % of control (dose: 100.0 mg/kg/injection, schedule: Q04DX002 (ip), vehicle: saline with Tween-80) and 101 % of control (dose: 200.0 mg/kg/injection, schedule: Q04DX002 (ip), vehicle: saline with Tween-80).

For the molecule `O/N=C1\CN2CCC1CC2`, the T/C is 110 % of control (dose: 50.0 mg/kg/injection, schedule: Q01DX005 (ip), vehicle: saline) and 105 % of control (dose: 100.0 mg/kg/injection, schedule: Q01DX005 (ip), vehicle: saline).

With `COc1ccc(Cc2nnc(NN)[nH]c2=O)cc1OC`, the T/C is 101 % of control under setting [4] and 97 % of control under setting [5].

As for `Clc1ccc(CN2CCCN(Cc3ccc(Cl)cc3)C2c2cc3ccccc3c3ccccc23)cc1`, the T/C reads like this: under setting [7], 99 % of control; under setting [8], 97 % of control; under setting [9], 93 % of control.

In the case of `COc1cc2c(c(OC)c1OC)-c1ccc(SC)c(=O)cc1[C@@H](NC(=O)CCl)CC2`, the T/C reads like this: (dose: 0.03 mg/kg/injection, schedule: Q01DX009 (ip), vehicle: water) 124 % of control; (dose: 0.4 mg/kg/injection, schedule: Q01DX009 (ip), vehicle: water) 155 % of control.

`CN1CCC(O)(C(O)(c2ccccc2)c2ccccc2)CC1`: the T/C is 96 % of control under setting [4], 100 % of control under setting [5] and 103 % of control under setting [6].

On to `O=C(CN1C(=O)c2cccc3c(Br)ccc(c23)C1=O)c1ccc(Cl)cc1`, for which the T/C is 92 % of control under setting [7], 92 % of control under setting [8] and 90 % of control under setting [9].

Take `O=[N+]([O-])c1ccc2c(c1)nc(-c1ccccn1)n2CCc1ccccn1`: the T/C (dose: 100.0 mg/kg/injection, schedule: Q04DX003 (ip), vehicle: Klucel (hydroxypropylcellulose) (HPC)) was 107 % of control; the T/C (dose: 200.0 mg/kg/injection, schedule: Q04DX003 (ip), vehicle: Klucel (hydroxypropylcellulose) (HPC)) is 101 % of control; the T/C (dose: 400.0 mg/kg/injection, schedule: Q04DX003 (ip), vehicle: Klucel (hydroxypropylcellulose) (HPC)) was 107 % of control.

As for `O=[N+]([O-])[O][Sn]([O][Sn]([O][N+](=O)[O-])([c]1ccccc1)[c]1ccccc1)([c]1ccccc1)[c]1ccccc1`, the T/C is 102 % of control (dose: 1.56 mg/kg/injection, schedule: Q01DX005 (ip), vehicle: Klucel (hydroxypropylcellulose) (HPC)); 99 % of control (dose: 3.12 mg/kg/injection, schedule: Q01DX005 (ip), vehicle: Klucel (hydroxypropylcellulose) (HPC)); 97 % of control (dose: 6.25 mg/kg/injection, schedule: Q01DX005 (ip), vehicle: Klucel (hydroxypropylcellulose) (HPC)); 122 % of control (dose: 12.5 mg/kg/injection, schedule: Q01DX005 (ip), vehicle: Klucel (hydroxypropylcellulose) (HPC)); 96 % of control (dose: 12.5 mg/kg/injection, schedule: Q01DX005 (ip), vehicle: saline).

Consider `CC(C)(C)NC(=O)OCc1c(COC(=O)NC(C)(C)C)c(-c2ccc(Cl)c(Cl)c2)n2c1CCC2`, for which the T/C reads like this: (dose: 6.25 mg/kg/injection, schedule: Q01DX009 (ip), vehicle: distilled water + Tween-80) 123 % of control; (dose: 12.5 mg/kg/injection, schedule: Q01DX009 (ip), vehicle: distilled water + Tween-80) 124 % of control; (dose: 50.0 mg/kg/injection, schedule: Q01DX009 (ip), vehicle: distilled water + Tween-80) 158 % of control and 164 % of control; (dose: 100.0 mg/kg/injection, schedule: Q01DX009 (ip), vehicle: distilled water + Tween-80) 164 % of control and 167 % of control; (dose: 200.0 mg/kg/injection, schedule: Q01DX009 (ip), vehicle: distilled water + Tween-80) 172 % of control; (dose: 400.0 mg/kg/injection, schedule: Q01DX009 (ip), vehicle: distilled water + Tween-80) 117 % of control.

With `CC1(C)N=C(N)N=C(N)N1c1ccc(S(C)(=O)=O)cc1`, the T/C reads like this: (dose: 12.5 mg/kg/injection, schedule: Q01DX005 (ip), vehicle: saline with Tween-80) 103 % of control; (dose: 25.0 mg/kg/injection, schedule: Q01DX005 (ip), vehicle: saline with Tween-80) 101 % of control; under setting [7], 100 % of control and 106 % of control.
